Test results as given in patent US12077503B2, “Substituted cyclic amides and their use as herbicides” (FMC CORPORATION, priority 2015, dated 2024).
Like-named read-outs stand apart in the source and are kept apart here.

Columns and labels:
Assay type in all cases: in vivo
[1] = test system: Galium (catchweed bedstraw, Galium aparine); assay: Test A postemergence; details: Galium, post-emergence, 240 h, Postemergence; for pest or weed control at 125 g/ha: 125 g ai/ha, visual rating about 10 d after treatment, read-out: Galium plant response rating (0 to 100 scale); for pest or weed control at 500 g/ha: 500 g ai/ha, visual injury, 0 to 100 scale (0 no effect, 100 complete control), approx. 10 d, read-out: Plant response rating, Galium
Procedure, shortened: (§1)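 Compounds were formulated in a non-phytotoxic solvent mixture with surfactant and applied as a preemergence directed soil spray after seeding, or sprayed postemergence over plants 2 to 10 cm tall at the one- to two-leaf stage. Evaluation after about 10 d compared treated with untreated controls, using a scale from 0 (no effect) to 100 (complete control).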

[2] = test system: Kochia (Kochia scoparia); assay: Test A postemergence; details: Bassia scoparia, post-emergence, 240 h, Postemergence; for pest or weed control at 125 g/ha: 125 g ai/ha, visual rating about 10 d after treatment, read-out: Kochia plant response rating (0 to 100 scale); for pest or weed control at 500 g/ha: 500 g ai/ha, visual injury, 0 to 100 scale (0 no effect, 100 complete control), approx. 10 d, read-out: Plant response rating, Kochia
Procedure, shortened: as §1

[3] = test system: barnyardgrass (Echinochloa crus-galli); assay: Test A postemergence; details: Echinochloa crus-galli, post-emergence, 240 h, Postemergence; for pest or weed control at 125 g/ha: 125 g ai/ha, visual rating about 10 d after treatment, read-out: Barnyardgrass plant response rating (0 to 100 scale, 0 no effect, 100 complete control); for pest or weed control at 500 g/ha: 500 g ai/ha, visual injury, 0 to 100 scale (0 no effect, 100 complete control), approx. 10 d, read-out: Plant response rating, Barnyardgrass
Procedure, shortened: as §1

[4] = test system: blackgrass (Alopecurus myosuroides); assay: Test A postemergence; details: Alopecurus myosuroides, post-emergence, 240 h, Postemergence; for pest or weed control at 125 g/ha: 125 g ai/ha, visual rating about 10 d after treatment, read-out: Blackgrass plant response rating (0 to 100 scale); for pest or weed control at 500 g/ha: 500 g ai/ha, visual injury, 0 to 100 scale (0 no effect, 100 complete control), approx. 10 d, read-out: Plant response rating, Blackgrass
Procedure, shortened: as §1

[5] = test system: corn (Zea mays); assay: Test A postemergence; details: Zea mays, post-emergence, 240 h, Postemergence; for plant injury at 125 g/ha: 125 g ai/ha, visual rating about 10 d after treatment, read-out: Corn plant response rating (0 to 100 scale); for Corn plant response rating (crop injury, 0 = no effect, 100 = complete kill) at 500 g/ha: 500 g ai/ha, visual injury, 0 to 100 scale (0 no effect, 100 complete control), approx. 10 d
Procedure, shortened: as §1

[6] = test system: giant foxtail (Setaria faberii); assay: Test A postemergence; details: Setaria faberi, post-emergence, 240 h, Postemergence; for pest or weed control at 125 g/ha: 125 g ai/ha, visual rating about 10 d after treatment, read-out: Foxtail, Giant plant response rating (0 to 100 scale); for pest or weed control at 500 g/ha: 500 g ai/ha, visual injury, 0 to 100 scale (0 no effect, 100 complete control), approx. 10 d, read-out: Plant response rating, Foxtail, Giant
Procedure, shortened: as §1

[7] = test system: pigweed (Amaranthus retroflexus); assay: Test A postemergence; details: Amaranthus retroflexus, post-emergence, 240 h, Postemergence; for pest or weed control at 125 g/ha: 125 g ai/ha, visual rating about 10 d after treatment, read-out: Pigweed plant response rating (0 to 100 scale); for pest or weed control at 500 g/ha: 500 g ai/ha, visual injury, 0 to 100 scale (0 no effect, 100 complete control), approx. 10 d, read-out: Plant response rating, Pigweed
Procedure, shortened: as §1

[8] = test system: ragweed (common ragweed, Ambrosia elatior); assay: Test A postemergence; details: Ambrosia artemisiifolia, post-emergence, 240 h, Postemergence; for pest or weed control at 125 g/ha: 125 g ai/ha, visual rating about 10 d after treatment, read-out: Ragweed plant response rating (0 to 100 scale); for pest or weed control at 500 g/ha: 500 g ai/ha, visual injury, 0 to 100 scale (0 no effect, 100 complete control), approx. 10 d, read-out: Plant response rating, Ragweed
Procedure, shortened: as §1

[9] = test system: ryegrass, Italian (Italian ryegrass, Lolium multiflorum); assay: Test A postemergence; details: Lolium multiflorum, post-emergence, 240 h, Postemergence; for pest or weed control at 125 g/ha: 125 g ai/ha, visual rating about 10 d after treatment, read-out: Ryegrass, Italian plant response rating (0 to 100 scale); for pest or weed control at 500 g/ha: 500 g ai/ha, visual injury, 0 to 100 scale (0 no effect, 100 complete control), approx. 10 d, read-out: Plant response rating, Ryegrass, Italian
Procedure, shortened: as §1

[10] = test system: wheat (Triticum aestivum); assay: Test A postemergence; details: Triticum aestivum, post-emergence, 240 h, Postemergence; for plant injury at 125 g/ha: 125 g ai/ha, visual rating about 10 d after treatment, read-out: Wheat plant response rating (0 to 100 scale); for plant injury at 500 g/ha: 500 g ai/ha, visual injury, 0 to 100 scale (0 no effect, 100 complete control), approx. 10 d, read-out: Plant response rating, Wheat
Procedure, shortened: as §1

[11] = test system: barnyardgrass (Echinochloa crus-galli); assay: Test B flooded paddy test; details: Echinochloa crus-galli, 250 g ai/ha, Flood
Procedure, shortened: (§2)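 Plants at 2-leaf stage flooded to 3 cm above soil, with compounds applied directly to paddy water and that depth maintained. Plants kept in greenhouse 13–15 d. Visual rating versus controls on a 0 (no effect) to 100 (complete control) scale.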

[12] = test system: ducksalad (Heteranthera limosa); assay: Test B flooded paddy test; details: Heteranthera limosa, 250 g ai/ha, Flood
Procedure, shortened: as §2

[13] = test system: rice (Oryra sativa); assay: Test B flooded paddy test; details: Oryza sativa, 250 g ai/ha, Flood
Procedure, shortened: as §2

[14] = test system: sedge, umbrella (small-flower umbrella sedge, Cyperus difformis); assay: Test B flooded paddy test; details: Cyperus difformis, 360 h, Flood, 250 g ai/ha; visually evaluated after 13 to 15 d; read-out: Plant response rating, Sedge, Umbrella (0 to 100 scale where 0 is no effect and 100 is complete control)
Procedure, shortened: as §2

[15] = 360 h, visually evaluated after 13 to 15 d, read-out: Plant response rating, Barnyardgrass (0 to 100 scale where 0 is no effect and 100 is complete control)
[16] = 360 h, visually evaluated after 13 to 15 d, read-out: Plant response rating, Ducksalad (0 to 100 scale where 0 is no effect and 100 is complete control)
[17] = 360 h, visually evaluated after 13 to 15 d, read-out: Plant response rating, Rice (0 to 100 scale where 0 is no effect and 100 is complete control)

Row | SMILES | pest or weed control at 125 g/ha [1] [%] | pest or weed control at 500 g/ha [1] [%] | pest or weed control at 125 g/ha [2] [%] | pest or weed control at 500 g/ha [2] [%] | pest or weed control at 125 g/ha [3] [%] | pest or weed control at 500 g/ha [3] [%] | pest or weed control at 125 g/ha [4] [%] | pest or weed control at 500 g/ha [4] [%] | plant injury at 125 g/ha [5] [%] | Corn plant response rating (crop injury, 0 = no effect, 100 = complete kill) at 500 g/ha [5] [%] | pest or weed control at 125 g/ha [6] [%] | pest or weed control at 500 g/ha [6] [%] | pest or weed control at 125 g/ha [7] [%] | pest or weed control at 500 g/ha [7] [%] | pest or weed control at 125 g/ha [8] [%] | pest or weed control at 500 g/ha [8] [%] | pest or weed control at 125 g/ha [9] [%] | pest or weed control at 500 g/ha [9] [%] | plant injury at 125 g/ha [10] [%] | plant injury at 500 g/ha [10] [%] | also measured
1 | Cc1c(F)ccc([C@H]2CNC(=O)[C@@H]2C(=O)Nc2cccc(F)c2F)c1F [Compound 1327] | 30 | 50 | 0 | 30 | 90 | 90 | 0 | 20 | 0 | 0 | 20 | 70 | 0 | 0 | 0 | 20 | 0 | 40 | 0 | 0 | pest or weed control at 250 g/ha ([11]; 0 to 100 scale where 0 is no effect and 100 is complete control, read-out: Barnyardgrass plant response rating): 30%; pest or weed control at 250 g/ha ([12]; 0 to 100 scale where 0 is no effect and 100 is complete control, read-out: Ducksalad plant response rating): 100%; pest or weed control at 250 g/ha ([13]; 0 to 100 scale where 0 is no effect and 100 is complete control, read-out: Rice plant response rating): 0%; pest or weed control at 250 g/ha [14]: 0%
2 | Cc1c(F)ccc([C@H]2CNC(=O)[C@@H]2C(=O)Nc2ccc(F)cc2F)c1F [Compound 1328] | 0 | 30 | 0 | 0 | 60 | 90 | 0 | 0 | 0 | 0 | 0 | 40 | 0 | 0 | 0 | 0 | 0 | 30 | 0 | 0 | pest or weed control at 250 g/ha [11, 15]: 0%; pest or weed control at 250 g/ha [12, 16]: 50%; pest or weed control at 250 g/ha [13, 17]: 0%; pest or weed control at 250 g/ha [14]: 0%
3 | CN1C[C@H](c2ccc(OC(F)F)cc2)[C@@H](C(=O)Nc2ccccc2F)C1=O [Compound 1371] | 70 | 70 | 50 | 80 | 80 | 90 | 40 | 60 | 40 | 90 | 90 | 90 | 30 | 60 | 20 | 60 | 30 | 50 | 10 | 60 | pest or weed control at 250 g/ha [11, 15]: 60%; pest or weed control at 250 g/ha [12, 16]: 100%; pest or weed control at 250 g/ha [13, 17]: 0%; pest or weed control at 250 g/ha [14]: 0%
4 | O=C1NC[C@H](c2cnc(C(F)(F)F)nc2)[C@H]1C(=O)Nc1cccc(F)c1F [Compound 1382] | 0 | 30 | 0 | 0 | 0 | 80 | 0 | 0 | 0 | 0 | 0 | 70 | 0 | 0 | 0 | 0 | 0 | 0 | 0 | 0 | pest or weed control at 250 g/ha [11, 15]: 30%; pest or weed control at 250 g/ha [12, 16]: 90%; pest or weed control at 250 g/ha [13, 17]: 0%; pest or weed control at 250 g/ha [14]: 20%
